Source: publication PMC6600545, “Novel Peptide-Based Inhibitors for Microtubule Polymerization in Phytophthora capsici” (International Journal of Molecular Sciences, 2019)
Values joined by “and” are separate entries in the source; they are usually repeats but may differ in a detail not shown here. Equal values may be shown once. Peptide text beside a SMILES is read from it. * marks the point of attachment. FITC = O=C1OC2(c3ccc(O)cc3Oc3cc(O)ccc32)c2ccc(NC(=S)*)cc21

Experiments:
[1] = cited from earlier work
From the text: In the past decade, several new chemical classes which display potent antifungal activity targeting fungal α, β-tubulin have been developed such as zoxamide, inhibiting β-tubulin in Phytophthora sojae (P. sojae); methyl benzimidazole carbamate, (MBC) inhibiting β-tubulin in Podosphaera xanthii (P. xanthii); and benomyl. One of these microtubule-targeted fungicides is benomyl. In the presence of benomyl, the polymerization of tubulin to microtubules is inhibited resulting in retarded cell division.

[2] = biological target: T1, P. capsici α, β-tubulin microtubule polymerization (Phytophthora capsici, UniProt A4ZYP2+A4ZYP4); test: biochemical
Method: The IC50 values of the four synthetic peptides were determined by fitting the relative inhibition data via the below Equation (1), where V0 is the reaction rate without inhibitor, Vf is the rate at saturation inhibition, and [I] is the inhibitor concentration. (1) V=(V0−Vf)×IC50/IC50+[I]+Vf
(§1) The polymerization and inhibition of microtubule assembly were studied using a spectroscopic method. Purified α, β-tubulins were mixed with 120 μL of polymerization buffer (80 mM PIPES (pH 7.4), 1 mM EGTA, 1 mM MgCl2, and 5% v/v glycerol) to a final concentration of 0.5 mg/mL total tubulin in 300 μL final reaction mixture. The polymerization assay was initiated with the addition of 2.5 mM GTP, and the reaction was continued until it reached the saturation point for 40 min. The contents were mixed, and the resulting turbidity due to microtubule formation was measured at 350 nm using an Optizen 2120 UV spectrophotometer. […] Furthermore, the polymerization and inhibition of microtubule formation were also confirmed through sodium dodecyl sulfate–polyacrylamide gel electrophoresis (SDS-PAGE), Western blot, and transmission electron microscopy (TEM). For the TEM analysis, samples were prepared according to the protocol reported by Vulevic et al.. Briefly, 30 μL of the saturated product of the polymerization reaction was immediately diluted with 10 μL of 0.4% glutaraldehyde, and the mixture was incubated for 3 min at room temperature. Then, 10 μL of the solution was applied to a 200 mesh, copper/formvar-coated grid (EMS) for 1 min, which was sequentially washed using two drops of dH2O and stained for 2 min with a drop of 2% uranyl acetate. Excess stain was removed by blotting with filter paper. Samples were air-dried and later viewed under a TEM.

[3] = biological target: P. capsici α, β-tubulin; test: ELISA binding affinity of phages displaying tubulin-binding peptides (anti-M13 antibody); parameters: species or system Phytophthora capsici; details: phage displaying the peptide, 5 μg tubulin per well, OD 450 nm
Method: Phage display was conducted with the M13 phage library in an effort to identify specific binding peptides to α, β-tubulin proteins from P. capsici. After five rounds of biopanning toward each target protein, 169 phage clones for α-tubulin and 112 for β-tubulin were selected. […] Testing was done for all the phages with different sequences to estimate their binding affinities for α, β-tubulins of P. capsici.
Phages displaying α, β-tubulin binding peptides were prepared, and their concentrations were determined by measurement of plaque-forming units (pfu) per volume. The binding affinities of phages displaying α, β-tubulin binding peptides were determined by the ELISA method, as described previously. Briefly, α, β-tubulin binding peptides were added in a concentration-dependent manner to a 96-well plate containing α, β-tubulin protein (5 μg per well), as indicated. The wells were then washed 10 times with 1X TBST (50 mM Tris-HCl, pH 7.5, 150 mM NaCl, and 0.1% Tween-20), followed by probing with an anti-M13 antibody (mouse monoclonal antibody, 1:5000 in 1X TBST, 0.2 μg·ml^−1; Amersham Bioscience, Little Chalfont, UK) for 1 h at room temperature. After washing five times with 1 X TBST buffer, anti-mouse IgG-horseradish peroxidase (HRP) conjugate was added, and the mixture was incubated for 1 h, followed by a color-developing reaction with tetramethylbenzidine (TMB) substrate solution ([TMB]/H2O2; Chemicon, Billerica, MA, USA). After 15 min, the reaction was terminated by the addition of 1 M H2SO4, and the optical densities were measured at 450 nm with a Biotrak multiwall plate reader (Amersham Bioscience).

[4] = biological target: H. sapiens α, β-tubulin; test: Fluorometric binding affinity of FITC-labeled synthetic peptides (specificity); details: FITC-labeled peptide, immobilised tubulin in 96-well plate, 2 h, ex 495 / em 520 nm
From the text: Investigation of the binding affinity for α, β-tubulins of H. sapiens to the synthesized peptides is necessary because peptide binding to H. sapiens tubulins could trigger severe toxicity in humans. First, α, β-tubulins of H. sapiens were individually overexpressed and purified (Figure 1). […] In addition, bovine serum albumin (BSA) was used as another control to confirm the specificity of the synthesized peptides. No significant binding fluorescence intensities for BSA were detected.
(§2) Peptides were synthesized by AnyGen Inc. (Gwangju, Korea). To prevent unintended interaction with other molecules, the peptides used in this study were modified by acetylation at the N-terminus and amidation at the C-terminus. With the addition of a lysine residue, the peptides were labeled with FITC at the C-terminus. This labeling was used for the identification of the target binding property by means of fluorescence detection. The purity of the synthesized peptides was greater than 90%, as assessed by HPLC. The peptides were further characterized to estimate their binding affinity and specificity. Briefly, serial dilutions of FITC-labeled peptides were incubated with α, β-tubulin proteins immobilized on a 96-well plate for 2 h. The binding affinities of the FITC-labeled peptides were determined by a fluorescence microplate reader (Molecular Devices, Sunnyvale, CA, USA) using the soft Max V5 system, with excitation at 495 nm and emission at 520 nm. The specificities of identified peptides for the target proteins were evaluated using the same fluorometric method described above, incorporating homologous H. sapiens α, β-tubulin. BSA protein was used as a negative control.

[5] = biological target: T1, P. capsici α, β-tubulin microtubule polymerization; test: Inhibition of microtubule polymerization by phages (turbidity at 350 nm); format: biochemical; details: phage 10 nM, 40 min reaction time
Method: As a next step, all 15 phages were used to determine whether the phages could inhibit the activity of microtubule polymerization of P. capsici. The concentration of each phage was constant at 10 nM, and the polymerization was measured after 40 min of reaction time.
as §1

[6] = biological target: P. capsici α, β-tubulin; test: Fluorometric binding affinity of FITC-labeled synthetic peptides; parameters: species or system Phytophthora capsici; details: FITC-labeled peptide, immobilised tubulin in 96-well plate, 2 h, ex 495 / em 520 nm
From the text: These peptides were synthesized with FITC-label for detection of the difference in the fluorescence by the absence and presence of target binding using a fluorescence microplate reader (see the Materials and Methods).
as §2

[7] = tested on: P. capsici microtubules; test: TEM analysis of polymerized microtubules; format: biochemical, Phytophthora capsici; details: polymerized for 40 min
Method: as §1, with “Excess stain was removed by blotting with filter paper. Samples were air-dried and later viewed under a TEM.” left out

[8] = tested on: H. sapiens α, β-tubulin microtubule polymerization; test: Microtubule polymerization inhibition assay with synthetic peptides (turbidity at 350 nm); format: biochemical; details: 0.5 mg/mL total tubulin, 2.5 mM GTP, 40 min
From the text: (1) V=(V0−Vf)×IC50/IC50+[I]+Vf
Excess stain was removed by blotting with filter paper.

T1 sequence (A4ZYP4 1-453): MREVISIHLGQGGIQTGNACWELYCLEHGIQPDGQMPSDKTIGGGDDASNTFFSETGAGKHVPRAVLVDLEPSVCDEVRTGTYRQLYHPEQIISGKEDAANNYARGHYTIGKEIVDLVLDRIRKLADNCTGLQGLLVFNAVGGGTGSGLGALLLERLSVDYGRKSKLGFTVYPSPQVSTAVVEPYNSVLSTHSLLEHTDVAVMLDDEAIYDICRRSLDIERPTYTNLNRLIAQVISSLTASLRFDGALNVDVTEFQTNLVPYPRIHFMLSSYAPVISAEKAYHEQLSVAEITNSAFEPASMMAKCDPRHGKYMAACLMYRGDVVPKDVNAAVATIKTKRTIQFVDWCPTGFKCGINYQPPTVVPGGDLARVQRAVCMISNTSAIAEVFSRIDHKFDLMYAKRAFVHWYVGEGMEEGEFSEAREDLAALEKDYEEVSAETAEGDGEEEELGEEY
T1 sequence (A4ZYP2 1-446): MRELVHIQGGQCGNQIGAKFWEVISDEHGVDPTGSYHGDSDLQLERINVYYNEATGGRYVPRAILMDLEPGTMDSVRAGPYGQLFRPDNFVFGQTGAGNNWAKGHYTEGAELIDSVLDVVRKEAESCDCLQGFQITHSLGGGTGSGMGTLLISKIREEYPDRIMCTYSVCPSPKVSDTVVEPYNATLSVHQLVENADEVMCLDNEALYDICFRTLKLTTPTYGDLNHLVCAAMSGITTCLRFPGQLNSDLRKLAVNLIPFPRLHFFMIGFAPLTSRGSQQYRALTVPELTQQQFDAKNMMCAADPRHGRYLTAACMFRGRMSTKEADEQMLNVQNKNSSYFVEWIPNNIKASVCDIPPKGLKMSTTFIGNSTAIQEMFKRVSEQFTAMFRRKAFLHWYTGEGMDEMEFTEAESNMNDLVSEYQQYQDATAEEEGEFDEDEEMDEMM

Compound	Kd [3]	percent inhibition of microtubule polymerization [5]	further results
CCCCNC(=O)n1c(NC(=O)OC)nc2ccccc21 [benomyl]			solubility in water [1]: low solubility
CC[C@H](C)[C@H](NC(C)=O)C(=O)N[C@H](C(=O)N[C@@H](CCSC)C(=O)N[C@@H](CO)C(=O)N[C@H](C(=O)N1CCC[C@H]1C(=O)N[C@@H](C)C(=O)N[C@@H](Cc1c[nH]cn1)C(=O)N[C@@H](CC(N)=O)C(=O)N[C@@H](C)C(=O)N[C@@H](CCCCN)C(=O)N[C@@H](CCC(=O)O)C(=O)N[C@@H](CCCCNC(=S)Nc1ccc2c(c1)C(=O)OC21c2ccc(O)cc2Oc2cc(O)ccc21)C(N)=O)C(C)C)[C@@H](C)O [α_P1] (Ac-ITMSVPAHNAKEK(FITC)-NH2)	0.0342 ± 0.00211 nM	28%	IC50 [2]: 2690 nM; Kd [4]: 134 ± 48.8 nM; Kd [6]: 69.5 ± 6.4 nM
CC(=O)N[C@H](C(=O)N[C@@H](CC(N)=O)C(=O)N[C@H](C(=O)N[C@@H](CO)C(=O)N[C@@H](Cc1c[nH]c2ccccc12)C(=O)N[C@@H](CC(=O)O)C(=O)N1CCC[C@H]1C(=O)N[C@@H](CCC(N)=O)C(=O)N[C@@H](Cc1ccc(O)cc1)C(=O)N[C@@H](CC(N)=O)C(=O)N1CCC[C@H]1C(=O)N[C@@H](CC(=O)O)C(=O)N[C@@H](CCCCNC(=S)Nc1ccc2c(c1)C(=O)OC21c2ccc(O)cc2Oc2cc(O)ccc21)C(N)=O)[C@@H](C)O)[C@@H](C)O [α_P2] (Ac-TNTSWDPQYNPDK(FITC)-NH2)	0.0801 ± 0.00113 nM	54%	IC50 [2]: 802 nM; Kd [4]: 256 ± 31.1 nM; Kd [6]: 93.9 ± 11.2 nM; microtubule morphology by TEM ([7]; 1 μM peptide): Amorphous morphology of microtubules occurred predominantly; microtubule formation by TEM ([7]; Ten micromolar peptide): completely inhibited the formation of microtubules; IC50 [8]: 2430 nM
CC(=O)N[C@@H](CC(N)=O)C(=O)N[C@@H](Cc1c[nH]cn1)C(=O)N[C@@H](Cc1ccccc1)C(=O)N[C@H](C(=O)N1CCC[C@H]1C(=O)N[C@H](C(=O)N[C@@H](CO)C(=O)N[C@@H](CC(N)=O)C(=O)N[C@@H](CCCNC(=N)N)C(=O)N[C@@H](Cc1ccccc1)C(=O)N[C@@H](CC(N)=O)C(=O)N[C@@H](C)C(=O)N[C@@H](CCCCNC(=S)Nc1ccc2c(c1)C(=O)OC21c2ccc(O)cc2Oc2cc(O)ccc21)C(N)=O)[C@@H](C)O)C(C)C [α_P3] (Ac-NHFVPTSNRFNAK(FITC)-NH2)	0.12 ± 0.00123 nM	32%	IC50 [2]: 1240 nM; Kd [4]: 162 ± 8.1 nM; Kd [6]: 79.2 ± 6.8 nM; IC50 [8]: 4110 nM
CC(=O)N[C@H](C(=O)N[C@@H](CC(N)=O)C(=O)N1CCC[C@H]1C(=O)N[C@@H](CCC(N)=O)C(=O)N[C@@H](C)C(=O)N[C@@H](CCCNC(=N)N)C(=O)N[C@@H](Cc1c[nH]c2ccccc12)C(=O)N[C@@H](Cc1c[nH]cn1)C(=O)N[C@@H](CCC(=O)O)C(=O)N[C@@H](Cc1ccc(O)cc1)C(=O)N[C@@H](CC(N)=O)C(=O)N[C@@H](Cc1ccccc1)C(=O)N[C@@H](CCCCNC(=S)Nc1ccc2c(c1)C(=O)OC21c2ccc(O)cc2Oc2cc(O)ccc21)C(N)=O)[C@@H](C)O [β_P1] (Ac-TNPQARWHEYNFK(FITC)-NH2)	0.0419 ± 0.00105 nM	21%	IC50 [2]: 6910 nM; Kd [4]: 455 ± 50.7 nM; Kd [6]: 49.7 ± 2.9 nM
IGNSWPLTSHSW [α_P10, M13 phage clone displaying 12-mer […], selected against P. capsici α-tubulin]	0.144 ± 0.0011 nM		
KVYAINSWTNYY [α_P13, M13 phage clone displaying 12-mer […], selected against P. capsici α-tubulin]	1.2 ± 0.0902 nM		
LMNPATMKTSSG [α_P7, M13 phage clone displaying 12-mer […], selected against P. capsici α-tubulin]	0.36 ± 0.00187 nM		
MVHSKASMWPGK [α_P12, M13 phage clone displaying 12-mer […], selected against P. capsici α-tubulin]	0.69 ± 0.00227 nM		
NAITLLSPPLHK [α_P5]	0.0571 ± 0.00177 nM	5% and 4%	
NFTINGKTHRLW [α_P4]	0.298 ± 0.00145 nM	19%	
NPIGDNYSGTGL [β_P2]	0.0371 ± 0.00141 nM	2%	
SNMKPSMEYSSR [α_P9, M13 phage clone displaying 12-mer […], selected against P. capsici α-tubulin]	0.273 ± 0.00179 nM		
SSHNHDSYHGTK [α_P6, M13 phage clone displaying 12-mer […], selected against P. capsici α-tubulin]	0.476 ± 0.00273 nM		
SYNTFMYERASK [α_P11, M13 phage clone displaying 12-mer […], selected against P. capsici α-tubulin]	0.562 ± 0.00169 nM		
TNTSWDPQYNPD [α_P8, M13 phage clone displaying 12-mer […]; (so in the source), selected against P. capsici α-tubulin]	0.0476 ± 0.00251 nM	4%	
